Results published in US12173309B2, “Compounds for increasing genome editing efficiency” (Max-Planck-Gesellschaft zur Förderung der Wissenschaften …, priority 2017, dated 2024).

Test system: primary Human Epidermal Keratinocytes (HEKa)
Experiment: PGE of HPRT with Cpf1 electroporation in non-pluripotent cells
Assay type: cell-based
Method: Stem cell lines cultured for this project included human 409-B2 hiPSC ([…], Riken BioResource Center) and SC102A1 hiPSC ([…], BioCat GmbH), chimpanzee SandraA ciPSC (female, Mora-Bermúdez et al. 201637), as well as H9 hESC ([…], WiCell Research Institute, Ethics permit AZ 3.04.02/0118). Stem cell lines were grown on Matrigel Matrix (Corning, 35248), and mTeSR1 (StemCell Technologies, 05851) with mTeSR1 supplement (StemCell Technologies, 05852) was used as culture media. Non-pluripotent cell types and their respective media used were: HEK293 (ECACC, 85120602) with DMEM/F-12 (Gibco, 31330-038) supplemented with 10% FBS (SIGMA, F2442) and 1% NEAA (SIGMA, M7145); K562 (ECACC, 89121407) with IMDM (ThermoFisher, 12440053) supplemented with 10% FBS; CD4^+ T (HemaCare, PB04C-1) with RPMI 1640 (ThermoFisher, 11875-093) supplemented with 10% FBS, and activated with Dynabeads Human T-Activator (CD3/CD28) (ThermoFisher, 11131D); CD34^+ progenitor (HemaCare, M34C-1) with StemSpan SFEM (Stemcell, 09600) supplemented with StemSpan CC110 (StemCell, 02697); and HEKa (Gibco, C0055C) with Medium 154 (ThermoFisher, M154500) and Human Keratinocyte Growth Supplement (ThermoFisher, S0015). Cells were grown at 37° C. in a humidified incubator gassed with 5% CO2. Media was replaced every day for stem cells and every second day for non-pluripotent cell lines. Cell cultures were maintained 4-6 days until ˜80% confluency, and subcultured at a 1:6 to 1:10 dilution. Adherent cells were dissociated using EDTA (VWR, 437012C). The media was supplemented with 10 μM Rho-associated protein kinase (ROCK) inhibitor Y-27632 (Calbiochem, 688000) after cell splitting for one day in order to increase cell survival.
The recombinant A.s. Cpf1 and S.p. Cas9 protein and electroporation enhancer was ordered from IDT (Coralville, USA) and nucleofection was done using the manufacturer's protocol, except for the following alterations. […] Cells were counted using the Countess Automated Cell Counter (Invitrogen). […]

Structure (SMILES) | effect on PGE efficiency
O=c1cc(N2CCOCC2)oc2c1ccc1ccccc12 [NU7026] | disruptive effect
CC(C)C1=CC23CCC4C(C)(C(=O)O)CCCC4(C)C2CC1C(C(=O)O)C3C(=O)O (stereo not drawn) [NSC 15520, Fumaropimaric acid] | disruptive effect
NS(=O)(=O)OC[C@@H]1C[C@@H](n2ccc3c(N[C@H]4CCc5ccccc54)ncnc32)C[C@@H]1O [MLN4924, Pevonedistat] | disruptive effect
